As usually defined, the Ki is a dissociation constant, usually derived from enzyme kinetics or from competition with a known ligand. As a reminder, the inhibition is how much of the control response was suppressed. As usually defined, the IC50 is the point on the concentration scale where inhibition reaches its midpoint.

“Also recorded” adds a separate entry of the source. Where two headings read alike, the source gives them in different places.

The values below come from patent US8497371B2, “Pipemidic acid derivative autotaxin inhibitors” (University of Memphis Research Foundation, priority 2009, dated 2013).

In assay [1] the target is T1, ATX (Homo sapiens, UniProt Q13822). Details: conditioned serum-free medium (CCM) from MDA-MB-435 cells as the source of ATX; endogenous in cells; host or cells: MDA-MB-435 cells (about 10x concentrated serum-free conditioned medium). Particulars: cited from earlier work.
Another assay deals with A2058 cells. The assay is described as follows: A2058 cell migration (scratch closure). The assay is classed as cell-based. Particulars: 30 μM inhibitor, 48 hours; for ATX-stimulated cell migration: ATX 100 ng/ml; for LPC+ATX-stimulated cell migration: LPC 18:1 10 μM + ATX 100 ng/ml; for LPC-stimulated cell migration: LPC 18:1 10 μM. As for the experimental part:
A2058 cells were seeded in 96-well plates at a density of 50,000 cells per well in complete growth medium (DMEM+10% FBS+penicillin/streptomycin+L-glutamine). Cells were allowed to equilibrate for 24 hours at 37° C. with 5% CO2. Cells were then serum-deprived for 24 hours in DMEM+0.1% BSA+penicillin/streptomycin+L-glutamine (serum-free medium). […] The width of the injury was measured at T0, 4 hours (data not shown), 24 hours (data not shown), and 48 hours (shown above) after injury/treatment using the 10× objective of the phase-contrast microscope and the Micron USB software package. Data represent mean percent closure±SD. n=3 for each experiment. […] However, these reductions were also not statistically significant.

Another assay addresses T2, human NPP6 (Homo sapiens, UniProt Q6UWR7).
T2 construct: transfected with human NPP6ex^51 or human NPP7ex expression plasmids; made in house; host or cells: HEK293 cells, transient transfection, pcDNA3.1(+); unconcentrated conditioned medium (CM)
T2 sequence (Q6UWR7 23-419 limits assumed): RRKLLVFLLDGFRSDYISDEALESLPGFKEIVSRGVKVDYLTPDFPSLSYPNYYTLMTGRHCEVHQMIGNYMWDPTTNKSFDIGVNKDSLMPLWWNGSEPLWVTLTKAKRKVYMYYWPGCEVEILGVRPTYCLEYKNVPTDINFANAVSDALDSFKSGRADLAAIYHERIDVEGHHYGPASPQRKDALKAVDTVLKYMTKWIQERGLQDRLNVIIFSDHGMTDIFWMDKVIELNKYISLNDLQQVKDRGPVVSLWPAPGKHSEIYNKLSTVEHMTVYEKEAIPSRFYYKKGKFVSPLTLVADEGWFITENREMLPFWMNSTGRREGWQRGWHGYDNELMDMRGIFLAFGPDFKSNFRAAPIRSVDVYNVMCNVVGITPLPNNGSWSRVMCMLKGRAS
The assay is described as follows: Determination of NPP6 inhibition (pNPPC substrate). Particulars: 10 μM inhibitor. The assay is classed as biochemical. As for the experimental part:
(§1) Inhibitor selectivity was assayed using p-nitrophenylphosphoryl-choline (pNPPC) (Sigma-Aldrich, St. Louis, Mo.) as substrate for NPP6 and NPP7. The final volume (60 μL) included 20 μL (CM, NPP6 or CCM, NPP7, 20 μL inhibitor (10 μM including 1% DMSO) in assay buffer, and 20 μL pNPPC (10 mM, NPP6 or 1 NPP7) in assay buffer. NPP6 assay buffer contained 500 mM NaCl, 0.05% Triton X-100, 100 mM Tris-HCl (pH 9.0), whereas NPP7 assay buffer was comprised of 50 mM Tris HCl, pH 8.5, 150 mM NaCl, and 10 mM taurocholic acid. However, unlike the published methods, EDTA was not added to the NPP7 assay buffer. All assays were performed in 96-well, half area plates (Corning Inc., Lowell, Mass.) at 37° C. with data collected at 2 minute intervals using a Synergy2 absorbance plate reader (BioTek, Winooski, Vt.). Results are shown at the one hour time point, when all absorbance changes as a function of time were linear. Readings were normalized to vehicle control after subtraction of absorbance in the absence of CM or CCM. Data are shown as the mean±S.D. of at least three wells. All experiments were repeated twice and representative results are shown.
(§2) Assays were performed with CM or CCM from HEK293 cells transiently transfected with NPP6 and 7 expression plasmids, respectively. HEK293 cells were seeded in Dulbecco's modified Eagle's medium (DMEM) containing 10% fetal bovine serum, 100 U/ml penicillin, 100 μg/ml streptomycin (Hyclone, Logan, Utah), and 2 mM L-glutamine. HEK293 cells were grown overnight at 37° C. under 5% CO2 to 80% confluence. The cells were then transfected with human NPP6ex^51 or human NPP7ex expression plasmids in the pcDNA3.1(+) mammalian vector in the presence of Polyfect Transfection Reagent (Hyclone, Logan, Utah). Six hours after transfection, the culture medium was changed to serum free DMEM containing L-glutamine and cells were incubated for 48 hours. Expressed protein was collected (NPP6 and NPP7) and concentrated ˜10×(NPP7) using 10 kDa molecular weight cutoff filters (Millipore, Beverly, Mass.) in an Amicon pressure cell (Millipore, Beverly, Mass.).

For assay [2], the target named is T1, ATX. Particulars: for Inhibition Mechanism: FS-3 substrate.
Assay [3] addresses T1, ATX. The assay can be described thus: ATX inhibition assay with FS-3 substrate. The class given is biochemical. More on the design: conditioned serum-free medium (CCM) from MDA-MB-435 cells as the source of ATX; endogenous in cells; host or cells: MDA-MB-435 cells (about 10x concentrated serum-free conditioned medium). To be noted: for % Response at 10 μM (FS-3): FS-3 hydrolysis normalized to vehicle control (low = strong inhibition), mean ± S.D.; for inhibition at 10 µM: single dose 10 μM, % inhibition, read-out: inhibition of ATX-mediated hydrolysis of FS-3.
Procedure: ATX inhibition was assayed using the substrate FS-3 (Echelon Biosciences, Inc., Salt Lake City, Utah, USA). The FS-3 assay used ˜10 times concentrated conditioned serum-free medium (CCM) from MDA-MB-435 cells as the source of ATX, while CCM comprised one-third of the total volume.
All assays were performed in 96-well plates with data read at 1 minute intervals by a Synergy2 system (BioTek, Winooski, Vt.). […] Results are shown at one hour, at which point all fluorescence and absorbance changes as a function of time were linear. All readings were normalized to vehicle control after subtraction of fluorescence in the absence of CCM. Data are shown as the mean±S.D. of at least three wells. All experiments were repeated at least twice and results are shown.

Another assay concerns the target T3, human NPP7 (Homo sapiens, UniProt Q6UWV6).
T3 construct: transfected with human NPP6ex^51 or human NPP7ex expression plasmids; made in house; host or cells: HEK293 cells, transient transfection, pcDNA3.1(+); conditioned medium concentrated about 10x (CCM)
T3 sequence (Q6UWV6 22-433 limits assumed): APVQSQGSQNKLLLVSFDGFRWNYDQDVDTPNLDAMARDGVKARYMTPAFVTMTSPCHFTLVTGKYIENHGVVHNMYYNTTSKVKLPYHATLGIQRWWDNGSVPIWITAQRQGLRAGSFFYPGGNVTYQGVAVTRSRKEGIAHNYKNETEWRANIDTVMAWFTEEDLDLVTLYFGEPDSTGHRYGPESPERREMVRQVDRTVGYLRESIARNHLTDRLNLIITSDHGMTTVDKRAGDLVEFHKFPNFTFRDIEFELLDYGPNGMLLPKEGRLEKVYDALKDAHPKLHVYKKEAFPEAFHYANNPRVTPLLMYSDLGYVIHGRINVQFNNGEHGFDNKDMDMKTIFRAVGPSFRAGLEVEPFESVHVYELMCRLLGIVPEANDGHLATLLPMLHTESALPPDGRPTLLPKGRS
The assay is described as follows: Determination of NPP7 inhibition (pNPPC substrate). Particulars: 10 μM inhibitor. The class given is biochemical. As for the experimental part: as §1, §2

The target in assay [4] is T1, ATX. The assay is described as follows: biochemical.
In assay [5] the target is T1, ATX. More on the design: conditioned serum-free medium (CCM) from MDA-MB-435 cells as the source of ATX; endogenous in cells; host or cells: MDA-MB-435 cells (about 10x concentrated serum-free conditioned medium). Particulars: 10 μM compound, 1 μM FS-3; earlier screen; cited from earlier work.
The subject of another assay is melanoma metastasis. Particulars: micromolar concentrations; cited from earlier work.

As to `CCCCCCCCc1ccc(CCC(N)(CO)COP(=O)(O)O)cc1` (centres unmarked) [FTY720-phosphate], the “mechanism of inhibition (reported)” value at ATX [1] is recorded as “competitive”. Further, the Ki at ATX [1] (read-out: Ki (reported)) is 0.2 µM.
As to `CCn1cc(C(=O)O)c(=O)c2cnc(N3CCN(C(=S)Nc4cccc(Cl)c4)CC3)nc21` [Compound 14, 2-(4-{[(3-chlorophenyl)amino]carbonothioyl}-1-piperazinyl)-8-ethyl-5-oxo-5,8-dihydropyrido[2,3-d]pyrimidine-6-carboxylic acid], in the assay on A2058 cells, the ATX-stimulated cell migration entry is “appeared to decrease”, the “LPC+ATX-stimulated cell migration” value is “appeared to decrease” and the LPC-stimulated cell migration result is on record as “appeared to decrease”. The “effect on activity of NPP6” value at human NPP6 is recorded as “None of the compounds affected the activity”. Also, at ATX [2], the “mechanism of ATX inhibition” value is “mixed-mode” and the “Inhibition Mechanism” value is recorded as “Mixed”. Besides, the “% Response at 10 μM (FS-3)” value at ATX [3] (10 μM compound) came to 9.7 ± 0.9%. The “single dose response comparison by aromatic substituent and position” value on ATX [3] (Table 2, same values as % Response at 10 μM) is recorded as 9.7 ± 0.9. The inhibition at 10 µM at ATX [3] was no less than 50%. Further, at human NPP7, the “effect on activity of NPP7” value was “None of the compounds affected the activity”.
Consider `CCn1cc(C(=O)O)c(=O)c2cnc(N3CCN(C(=S)Nc4cc(Cl)cc(Cl)c4)CC3)nc21` [Compound 1], for which, on ATX [4] (Ki), the affinity, expressed as Ki, was 1.6 µM. Further, in the assay with A2058 cells, the ATX-stimulated cell migration entry is recorded as “significantly inhibited”, the “LPC+ATX-stimulated cell migration” value is “significantly inhibited; also recorded: statistically significant inhibition” and the LPC-stimulated cell migration entry is recorded as “the reduction was not statistically significant”. Further, the “inhibition of ATX-catalyzed hydrolysis of FS-3, initial single concentration screen” value at ATX [5] is on record as “fully inhibited”. Further, on ATX [2], the “mechanism of ATX inhibition” value is reported as “mixed-mode” and the “Inhibition Mechanism” value was “Mixed”. At ATX [3] (10 μM compound, FS-3 1 μM), the “block of ATX-mediated hydrolysis of FS-3” value was “completely blocked”. In addition, the “% Response at 10 μM (FS-3)” value on ATX [3] (10 μM compound) worked out at 0.0 ± 4.0%. The compound further had an IC50 against ATX [3] (ATX-mediated FS-3 hydrolysis) of 1.6 ± 0.4 µM.
Turning to `N[C@@H](Cc1c[nH]cn1)C(=O)O` [L-histidine], on ATX [1], the “mechanism of inhibition (reported)” value is reported as “non-competitive”.
Turning to `O=[As](O)(O)c1ccc(Cc2ccc([As](=O)(O)O)cc2)cc1` [NSC 48300], in the assay with melanoma metastasis, the “inhibition of melanoma metastasis” value is recorded as roughly 100%. Also, the “mechanism of inhibition (reported)” value at ATX [1] is “competitive”.
For the compound `CCn1cc(C(=O)O)c(=O)c2cnc(N3CCN(C(=S)Nc4cc(Cl)ccc4Cl)CC3)nc21` [Compound 20, 2-(4-{[(2,5-dichlorophenyl)amino]carbonothioyl}-1-piperazinyl)-8-ethyl-5-oxo-5,8-dihydropyrido[2,3-d]pyrimidine-6-carboxylic acid], in the assay with A2058 cells, the ATX-stimulated cell migration entry is recorded as “appeared to decrease”, the “LPC+ATX-stimulated cell migration” value is “appeared to decrease” and the LPC-stimulated cell migration result was “appeared to decrease”. On human NPP6, the “effect on activity of NPP6” value is “None of the compounds affected the activity”. Also, the “effect on activity of NPP7” value on human NPP7 was “None of the compounds affected the activity”.
Regarding `CCCCCCCCCCCCC/C=C/[C@@H](O)[C@@H](N)COP(=O)(O)O` [Compound S1P, sphingosine 1-phosphate], the “mechanism of inhibition (reported)” value on ATX [1] is “mixed-mode”.
The compound `CCn1cc(C(=O)O)c(=O)c2cnc(N3CCN(C(=S)Nc4cc(C)cc(C)c4)CC3)nc21` [Compound 22, 2-(4-{[(3,5-dimethylphenyl)amino]carbonothioyl}-1-piperazinyl)-8-ethyl-5-oxo-5,8-dihydropyrido[2,3-d]pyrimidine-6-carboxylic acid] registered an inhibitory constant (Ki) at ATX [4] (Ki) of 1.7 to 13.5 µM. In addition, the Ki at ATX [4] (Ki (μM), FS-3 substrate, for mixed mode Ki=IC50 assumed) is 9 µM. Further, on human NPP6, the “effect on activity of NPP6” value is “None of the compounds affected the activity”. In addition, at ATX [2], the “mechanism of ATX inhibition” value was “mixed-mode”, the “potency relative to the lead compound” value is “as potent as or significantly less potent than the lead” and the “Inhibition Mechanism” value is “Mixed”. Further, the “% Response at 10 μM (FS-3)” value at ATX [3] (10 μM compound) is 30.4 ± 1.3%. The IC50 at ATX [3] (FS-3 substrate) is 9 µM. On ATX [3], the inhibition at 10 µM is no less than 50%. Besides, on human NPP7, the “effect on activity of NPP7” value is “None of the compounds affected the activity”.
